Experimental data reported in article PMC11192081, “Evidence that the cold- and menthol-sensing functions of the human TRPM8 channel evolved separately” (Science Advances, 2024).

Tests used:
AncVert TRPM8 = test system: T1, AncVert TRPM8; experiment: Fluoforte calcium flux assay, HEK-293T stable cells; assay type: cell-based; details: Homo sapiens
T1 construct: tetramer

AncMam TRPM8 = test system: T2, AncMam TRPM8; experiment: as above; assay type: cell-based; details: Homo sapiens
T2 construct: tetramer

Structure (SMILES): CC(C)[C@@H]1CC[C@@H](C)C[C@H]1O [menthol]
- EC50 (AncVert TRPM8): 140 ± 40 µM
- EC50 (AncMam TRPM8): 10 ± 1 µM
